Assay results published in US20210246115A1 (Bioimics AB, priority 2017, published 2021).
≈ marks a conversion by molar mass, not a printed value. Where a name gives a salt, the structure may show the parent alone. Read-outs that look alike come from different tables or passages of the source.

Legend:
[1] = test system: Escherichia coli (ATCC25922); assay: MIC, broth microdilution (CLSI), Escherichia coli; conditions: for MIC: Escherichia coli, ATCC25922, read-out: E. coli ATCC 25922 MIC, Table XIII
[2] = test system: Staphylococcus aureus subsp. aureus (ATCC29213); assay: MIC, broth microdilution (CLSI), Staphylococcus aureus ATCC29213; format: cell-based; conditions: for MIC: Staphylococcus aureus
[3] = ATCC29213, read-out: S. aureus ATCC 29213 MIC, Table XIII
[4] = ATCC29213, Table XIII, read-out: S. aureus ATCC 29213 MIC

| MIC [2, 4] [µg/mL] | Structure (SMILES) | MIC [1] [µg/mL] | MIC [2, 3] [µg/mL] | E. coli ATCC 25922 MIC ([1]; Table XIII, hydrochloride salt) [µg/mL] | S. aureus ATCC 29213 MIC ([2]; Table XIII, hydrochloride salt) [µg/mL] |
| --- | --- | --- | --- | --- | --- |
|  | N[C@H]1CC[C@H](NCCC(c2ccncc2)c2cn(C3CC4CCC3C4)c3ccccc23)CC1 (stereo partly drawn) [Compound 336, (1R,4R)-N1-(3-(1-(bicyclo[2.2.1]heptan-2-yl)-1H-indol-3-yl)-3-(pyridin-4-yl)propyl)cyclohexane-1,4-diamine hydrochloride salt] | 128 | 64 |  |  |
| 32 | Cl.Cl.NCCCNCCC(c1ccncc1)c1cn(C2CCCCC2)c2ccccc12 (centres unmarked) [Compound 339, N1-(3-(1-cyclohexyl-1H-indol-3-yl)-3-(pyridin-4-yl)propyl)propane-1,3-diamine hydrochloride salt] | 128 |  |  |  |
|  | Cc1cccc(C(CCNC2CCNCC2)c2cn(CC3CCOCC3)c3ccc(C#N)cc23)c1 (centres unmarked) [Compound 316, 3-(3-(piperidin-4-ylamino)-1-(m-tolyl)propyl)-1-((tetrahydro-2H-pyran-4-yl)methyl)-1H-indole-5-carbonitrile hydrochloride salt] | 64 | 64 |  |  |
| 128 | Cl.Cl.c1cncc(C(CCNC2CCNCC2)c2cn(CC3CCCCC3)c3ccccc23)c1 (centres unmarked) [Compound 320, N-(3-(1-(cyclohexylmethyl)-1H-indol-3-yl)-3-(pyridin-3-yl)propyl) piperidin-4-amine hydrochloride salt] | 128 |  |  |  |
|  | NC1CCC(NCCC(c2cccnc2)c2cn(C3CC4CCC3C4)c3ccccc23)CC1 (centres unmarked) [Compound 324, N1-(3-(1-(bicyclo[2.2.1]heptan-2-yl)-1H-indol-3-yl)-3-(pyridin-3-yl)propyl)cyclohexane-1,4-diamine hydrochloride salt] | 64 | 32 |  |  |
|  | Cc1cccc(C(CCNC2CCC(N)CC2)c2cn(C3CCNCC3)c3ccccc23)c1 (centres unmarked) [Compound 306, N1-(3-(1-(piperidin-4-yl)-1H-indol-3-yl)-3-(m-tolyl)propyl)cyclohexane-1,4-diamine hydrochloride salt] | > 128 | 16 |  |  |
|  | Cc1cccc(C(CCNC2CCNCC2)c2cn(CC3CCNCC3)c3ccc(C#N)cc23)c1 (centres unmarked) [Compound 326, 3-(3-(piperidin-4-ylamino)-1-(m-tolyl)propyl)-1-(piperidin-4-ylmethyl)-1H-indole-5-carbonitrile hydrochloride salt] | 128 | 32 |  |  |
|  | Cc1cccc(C(CCNC2CCNCC2)c2cn(C3CCNCC3)c3ccccc23)c1 (centres unmarked) [Compound 317, N-(3-(1-(piperidin-4-yl)-1H-indol-3-yl)-3-(m-tolyl)propyl)piperidin-4-amine hydrochloride salt] | > 128 | 64 |  |  |
|  | COc1cccc(C(CCNC2CCC(N)CC2)c2cn(C3CCCCC3)c3ccc(C#N)cc23)c1 (centres unmarked) [Compound 400, 3-(3-(((1s,4s)-4-aminocyclohexyl)amino)-1-(3-methoxyphenyl)propyl)-1-cyclohexyl-1H-indole-5-carbonitrile hydrochloride salt] | 16 | 16 |  |  |
|  | NC1CCC(NCCC(c2cccnc2)c2cn(CC3CCCCC3)c3ccccc23)CC1 (centres unmarked) [Compound 319, N1-(3-(1-(cyclohexylmethyl)-1H-indol-3-yl)-3-(pyridin-3-yl)propyl) cyclohexane-1,4-diamine hydrochloride salt] | 64 | 32 |  |  |
|  | Cc1cccc(C(CCNC2CCC(N)CC2)c2cn(C3CCCCC3)c3ccccc23)c1 [Compound 392, (1S,4S)- -N1-(3-(1-cyclohexyl-1H-indol-3-yl)-3-(m-tolyl)propyl) cyclohexane-1,4-diamine hydrochloride salt] |  |  | 8 | 8 |
| 8 (≈ 18.6 µM) | Cc1cccc(C(CCNCC2(CN)CC2)c2cn(C3CCCCC3)c3ccccc23)c1 (centres unmarked) [Compound 390, N-((1-(aminomethyl)cyclopropyl)methyl)-3-(1-cyclohexyl-1H-indol-3-yl)-3-(m-tolyl)propan-1-amine] | 8 (≈ 18.6 µM) |  |  |  |

| Structure (SMILES) | MIC [2, 4] [µg/mL] | MIC [1] [µg/mL] | MIC [2, 3] [µg/mL] | E. coli ATCC 25922 MIC ([1]; Table XIII, hydrochloride salt) [µg/mL] | S. aureus ATCC 29213 MIC ([2]; Table XIII, hydrochloride salt) [µg/mL] |
| --- | --- | --- | --- | --- | --- |
| CCN(Cc1cn(CC2CCCCC2)c2ccccc12)CC1CCN(C)CC1 [Compound 303, N-((1-(cyclohexylmethyl)-1H-indol-3-yl)methyl)-N-((1-methylpiperidin-4-yl)methyl)ethanamine] | 128 (≈ 335 µM) | 128 (≈ 335 µM) |  |  |  |
